Measurements as given in BindingDB's records for patent US12371428 (Exelixis, 2025).

Experiments:
[1] = target: T1, Tyrosine-protein kinase Mer (Homo sapiens, UniProt Q12866); test: Human Mer Kinase Assay
T1 sequence (Q12866 whole entry): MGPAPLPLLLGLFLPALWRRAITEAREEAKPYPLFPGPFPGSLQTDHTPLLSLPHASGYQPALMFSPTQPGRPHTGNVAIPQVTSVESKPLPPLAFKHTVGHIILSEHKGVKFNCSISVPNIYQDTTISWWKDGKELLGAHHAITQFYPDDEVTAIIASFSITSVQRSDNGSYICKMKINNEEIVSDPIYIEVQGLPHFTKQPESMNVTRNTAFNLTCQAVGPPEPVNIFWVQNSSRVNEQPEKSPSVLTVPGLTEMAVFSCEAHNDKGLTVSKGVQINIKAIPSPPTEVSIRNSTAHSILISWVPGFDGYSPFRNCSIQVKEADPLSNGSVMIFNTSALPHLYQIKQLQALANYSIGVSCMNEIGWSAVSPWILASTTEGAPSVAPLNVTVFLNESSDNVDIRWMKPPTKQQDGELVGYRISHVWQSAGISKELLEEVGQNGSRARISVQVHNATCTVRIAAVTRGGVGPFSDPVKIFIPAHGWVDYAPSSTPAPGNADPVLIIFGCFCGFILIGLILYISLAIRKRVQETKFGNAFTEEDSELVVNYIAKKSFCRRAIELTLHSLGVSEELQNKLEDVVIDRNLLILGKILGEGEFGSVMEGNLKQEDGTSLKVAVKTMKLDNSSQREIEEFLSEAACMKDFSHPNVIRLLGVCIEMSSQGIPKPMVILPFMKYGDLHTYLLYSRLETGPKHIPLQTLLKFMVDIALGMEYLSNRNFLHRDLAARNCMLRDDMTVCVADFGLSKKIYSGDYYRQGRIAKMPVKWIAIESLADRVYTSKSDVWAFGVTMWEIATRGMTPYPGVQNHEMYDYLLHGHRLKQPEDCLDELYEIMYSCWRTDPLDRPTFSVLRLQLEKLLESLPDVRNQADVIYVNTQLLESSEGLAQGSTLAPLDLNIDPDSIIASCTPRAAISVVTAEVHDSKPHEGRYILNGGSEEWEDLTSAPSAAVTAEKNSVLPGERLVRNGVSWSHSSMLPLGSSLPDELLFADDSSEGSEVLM
Experimental: Example C-1: Human Mer (residues R557-E882 with H628Q and R794A, 0.7 nM) was incubated with 8 mM MOPS pH 7.0, 0.2 mM EDTA, 30 mM NaCl, 250 μM […] (SEQ ID NO:2), 10 mM magnesium acetate, and 10 μM [γ-33P-ATP]. The reaction was initiated by the addition of the Mg/ATP mix. After incubation for 40 minutes at room temperature, the reaction was stopped by the addition of phosphoric acid to a concentration of 0.5%. A reaction aliquot of 10 μL was then spotted onto a P30 filtermat and washed four times for 4 minutes in 0.425% phosphoric acid and once in methanol prior to drying and scintillation counting. Incorporated 33P was measured using the Wallac Microbeta scintillation counter (Perkin Elmer).Example C-2: Human MER (residues 528-999; CarnaBio, 1 ng/well) was also incubated with enzymatic buffer (Cisbio) supplemented with 5 mM MgCl2 and 1 mM DTT. The mixture was added to the pre-plated compounds. The reaction was initiated upon addition of ATP at Km (40 μM). The reaction was incubated at room temperature for 60 min and stopped upon the addition of SA-XL665 and TK-antibody both diluted in EDTA-containing kinase detection buffer (Cisbio). The kinase activity was calculated as stated above and the IC50 values were reported.

[2] = target: Hepatocyte growth factor receptor (Homo sapiens, UniProt P08581); test: Human Met Kinase Assay
Chain of Hepatocyte growth factor receptor (P08581 whole entry, the tested form may be a part): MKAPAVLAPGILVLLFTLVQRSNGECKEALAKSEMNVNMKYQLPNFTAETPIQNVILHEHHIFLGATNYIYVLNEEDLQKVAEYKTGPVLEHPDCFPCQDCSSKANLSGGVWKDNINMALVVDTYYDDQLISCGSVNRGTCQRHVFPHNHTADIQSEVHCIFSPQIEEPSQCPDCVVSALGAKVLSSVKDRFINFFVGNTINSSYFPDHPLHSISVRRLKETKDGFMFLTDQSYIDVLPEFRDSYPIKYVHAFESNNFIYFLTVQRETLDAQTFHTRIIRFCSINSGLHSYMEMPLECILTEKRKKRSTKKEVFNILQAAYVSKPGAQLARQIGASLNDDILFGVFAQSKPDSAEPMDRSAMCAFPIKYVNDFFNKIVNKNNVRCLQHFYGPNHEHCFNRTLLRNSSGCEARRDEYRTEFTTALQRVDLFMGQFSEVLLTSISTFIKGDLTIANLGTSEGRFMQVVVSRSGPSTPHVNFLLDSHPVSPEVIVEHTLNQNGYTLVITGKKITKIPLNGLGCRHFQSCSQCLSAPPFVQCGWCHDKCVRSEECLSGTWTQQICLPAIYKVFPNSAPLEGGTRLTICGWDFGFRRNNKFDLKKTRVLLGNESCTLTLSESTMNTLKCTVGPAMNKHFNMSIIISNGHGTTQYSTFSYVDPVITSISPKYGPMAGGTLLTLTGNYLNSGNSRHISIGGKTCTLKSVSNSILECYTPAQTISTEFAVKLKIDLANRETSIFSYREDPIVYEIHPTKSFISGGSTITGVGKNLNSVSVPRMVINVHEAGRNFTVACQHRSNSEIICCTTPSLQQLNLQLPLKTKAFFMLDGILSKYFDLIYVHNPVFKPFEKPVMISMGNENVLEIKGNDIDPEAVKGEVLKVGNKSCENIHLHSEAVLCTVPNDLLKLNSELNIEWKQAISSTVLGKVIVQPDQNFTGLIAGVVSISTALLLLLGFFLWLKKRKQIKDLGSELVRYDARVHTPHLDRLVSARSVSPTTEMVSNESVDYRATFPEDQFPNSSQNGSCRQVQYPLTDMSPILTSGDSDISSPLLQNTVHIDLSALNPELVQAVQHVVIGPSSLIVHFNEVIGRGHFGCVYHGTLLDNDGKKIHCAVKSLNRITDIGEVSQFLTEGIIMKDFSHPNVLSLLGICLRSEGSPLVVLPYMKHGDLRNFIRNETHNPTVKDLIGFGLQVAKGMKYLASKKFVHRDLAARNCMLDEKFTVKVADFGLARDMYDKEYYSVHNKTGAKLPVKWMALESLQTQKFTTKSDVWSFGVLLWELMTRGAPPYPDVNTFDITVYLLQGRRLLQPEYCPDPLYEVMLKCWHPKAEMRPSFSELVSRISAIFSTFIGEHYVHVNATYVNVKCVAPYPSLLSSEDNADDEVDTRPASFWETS
Experimental: Example D-1: Human Met (residues R974-S1390 with A1209G and V1290L, 3.4 nM) was incubated with 8 mM MOPS pH 7.0, 0.2 mM EDTA, 250 µM […] (SEQ ID NO:3), 1 mM sodium orthovanadate, 5 mM […], 10 mM magnesium acetate, and 10 μM [γ-33P-ATP]. The reaction was initiated by the addition of the Mg/ATP mix. After incubation for 40 minutes at room temperature, the reaction was stopped by the addition of phosphoric acid to a concentration of 0.5%. A reaction aliquot of 10 μL was then spotted onto a P30 filtermat and washed four times for 4 minutes in 0.425% phosphoric acid and once in methanol prior to drying and scintillation counting. Incorporated 33P was measured using the Wallac Microbeta scintillation counter (Perkin Elmer).Example D-2: Human MET (residues 956-1390; CarnaBio, 0.1 ng/well) was also incubated with enzymatic buffer (Cisbio) supplemented with 5 mM MgCl2, 1 mM DTT and 1 mM MnCl2. The mixture was added to the pre-plated compounds. […] The reaction was incubated at room temperature for 40 min and stopped upon the addition of SA-XL665 and TK-antibody both diluted in EDTA-containing kinase detection buffer (Cisbio). The kinase activity was calculated as stated above and the IC50 values were reported.

[3] = target: Vascular endothelial growth factor receptor 2 (Homo sapiens, UniProt P35968); test: Human KDR Kinase Assay
Chain of Vascular endothelial growth factor receptor 2 (P35968 whole entry, the tested form may be a part): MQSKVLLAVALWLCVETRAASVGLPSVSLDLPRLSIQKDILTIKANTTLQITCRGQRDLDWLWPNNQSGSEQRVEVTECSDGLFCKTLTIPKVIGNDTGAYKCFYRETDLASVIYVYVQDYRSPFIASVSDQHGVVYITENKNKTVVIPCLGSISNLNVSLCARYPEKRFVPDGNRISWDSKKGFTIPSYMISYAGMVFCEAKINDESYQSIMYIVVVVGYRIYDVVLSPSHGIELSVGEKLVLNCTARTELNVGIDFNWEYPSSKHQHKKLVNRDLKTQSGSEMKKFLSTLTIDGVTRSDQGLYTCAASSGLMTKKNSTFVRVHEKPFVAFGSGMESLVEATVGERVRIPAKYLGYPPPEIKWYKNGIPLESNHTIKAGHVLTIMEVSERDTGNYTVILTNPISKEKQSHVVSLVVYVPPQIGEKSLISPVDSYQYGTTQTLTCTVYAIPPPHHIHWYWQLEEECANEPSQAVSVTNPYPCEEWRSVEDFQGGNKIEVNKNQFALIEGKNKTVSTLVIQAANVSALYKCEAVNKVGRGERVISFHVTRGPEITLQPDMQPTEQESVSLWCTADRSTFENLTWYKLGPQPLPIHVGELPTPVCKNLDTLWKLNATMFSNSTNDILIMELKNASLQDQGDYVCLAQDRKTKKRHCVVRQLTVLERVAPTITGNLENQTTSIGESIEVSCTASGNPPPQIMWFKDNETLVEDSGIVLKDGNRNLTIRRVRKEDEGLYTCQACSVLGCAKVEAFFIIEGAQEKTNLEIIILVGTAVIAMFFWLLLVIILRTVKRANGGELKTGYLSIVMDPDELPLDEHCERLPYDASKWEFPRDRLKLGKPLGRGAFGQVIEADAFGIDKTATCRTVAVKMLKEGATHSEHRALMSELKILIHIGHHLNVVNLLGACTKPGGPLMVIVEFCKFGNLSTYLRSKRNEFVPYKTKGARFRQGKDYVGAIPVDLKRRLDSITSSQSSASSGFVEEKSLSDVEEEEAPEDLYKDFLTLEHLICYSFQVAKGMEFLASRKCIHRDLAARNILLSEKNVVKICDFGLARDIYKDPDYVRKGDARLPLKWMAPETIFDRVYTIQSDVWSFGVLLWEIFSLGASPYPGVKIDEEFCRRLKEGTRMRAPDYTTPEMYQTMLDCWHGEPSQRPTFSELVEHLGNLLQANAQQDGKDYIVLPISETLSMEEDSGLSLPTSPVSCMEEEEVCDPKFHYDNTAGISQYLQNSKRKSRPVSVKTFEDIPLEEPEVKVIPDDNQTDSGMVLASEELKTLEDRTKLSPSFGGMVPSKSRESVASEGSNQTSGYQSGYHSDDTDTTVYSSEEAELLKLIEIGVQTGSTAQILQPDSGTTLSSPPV
Experimental: Example B-1: Human KDR (residues K790-V1356, 55 nM) was incubated with 8 mM MOPS pH 7.0, 0.2 mM EDTA, 0.33 mg/mL myelin basic protein, 10 mM magnesium acetate, and 10 μM [γ-33P-ATP]. The reaction was initiated by the addition of the Mg/ATP mix. After incubation for 40 minutes at room temperature, the reaction was stopped by the addition of phosphoric acid to a concentration of 0.5%. A reaction aliquot of 10 μL was then spotted onto a P30 filtermat and washed four times for 4 minutes in 0.425% phosphoric acid and once in methanol prior to drying and scintillation counting. Incorporated 33P was measured using the Wallac Microbeta scintillation counter (Perkin Elmer).Example B-2: Human KDR (residues 790-1356; CarnaBio, 0.1 ng/well) was also incubated with enzymatic buffer (Cisbio) supplemented with 5 mM MgCl2, 1 mM MnCl2, and 1 mM DTT. The mixture was added to the pre-plated compounds. The reaction was initiated upon addition of ATP at Km (4.0 μM). The reaction was incubated at room temperature for 40 min and stopped upon the addition of SA-XL665 and TK-antibody both diluted in EDTA-containing kinase detection buffer (Cisbio). The kinase activity was calculated as stated above and the IC50 values were reported.

IC50 [1] [nM]	IC50 [2] [nM]	IC50 [3] [nM]	SMILES
< 100	< 100	< 100	COc1cc2nccc(Oc3ccc(NC(=O)C4C(=O)C(c5ccc(F)cc5)=C(C)N=C4C)cc3F)c2nc1OC (stereo unspecified) [US12371428, Compound 154]
< 100	< 100	< 100	COCCOc1ccc2nccc(Oc3ccc(NC(=O)C4=C(C)N=C(C)C(c5ccc(F)cc5)C4O)cc3F)c2n1 (stereo unspecified) [US12371428, Compound 349]
